Experimental data taken from patent publication US6022561A, “Bilayers preparations” (Scotia Lipidteknik AB, priority 1994, dated 2000).
Counter-ions that a name gives are not always drawn.

Key:
haemolysis = experiment: Haemolysis in vivo, preliminary studies; design: species or system rats
human whole blood = experiment: Test 4. In vitro haemolysis test; format: cell-based; conditions: Li-GLA dissolved in 0.9% saline
Method: The samples were then incubated at 37° C. in an oxygen:carbon dioxide, 95:5, enriched atmosphere, 3 l/min, for 1 h, with constant gentle shaking. […] All samples were then spun for 2 min in an Eppendorf Microfuge (Brinkman Instruments Ltd, Canada) and finally analyzed on a centrifugal analyser (Cobas Bioanalyser; Hoffmann-La Roche Ltd, Canada) with UV scan of 540 nm.

cancer cells = experiment: Activity against cancer cells in vitro; format: cell-based

CCCCC/C=C\C/C=C\C/C=C\CCCCC(=O)O [Li-GLA, lithium salt of gammalinolenic acid]
"Red urine" in rats (haemolysis): does
Concentration causing 100% haemolysis (human whole blood): 4000 to 5000 µM
Activity against cancer cells in vitro, free vs liposomal Li-GLA (cancer cells): almost identical
